Results on one molecule are retold here after patent publication US7262165B2, “Aqueous preparation containing oligopeptides and etherified cyclodextrin” (Merck Patent GmbH, priority 2002, dated 2007).

The term solubility denotes the concentration that dissolves in the medium under given conditions. A high value points to a readily soluble substance.

In brackets after ≈: the same amount, converted by molar mass.

A short description of this series: Saturation solubilities of the oligopeptide (cilengitide) in the solvent indicated, with pH. Particulars: in physiological saline solution. It counts as physicochemical. How it is done:
In order to determine the saturation solubilities, the oligopeptide was stirred for 1 hour at room temperature in the solvent indicated in each case.
Analogously to Example 1, the effect of addition of β-cyclodextrin ethers (MS 0.63) on the saturation solubilities of the oligopeptides was determined using the example of cilengitide.

For the molecule `CC(C)[C@H]1C(=O)N[C@@H](CCCN=C(N)N)C(=O)NCC(=O)N[C@@H](CC(=O)O)C(=O)N[C@H](Cc2ccccc2)C(=O)N1C` [Cilengitide, cyclo-(Arg-Gly-Asp-D-Phe-NMe-Val)], the solubility at 1 h was roughly 19 mg/mL (≈ 32.3 mM).
